# Laboratory results: patent publication US12590062B2, “PD-1/PD-L1 inhibitors” (Gilead Sciences, Inc., priority 2017, dated 2026)
# Assays:
# [1] = molecular target: PD-1/PD-L1 (Homo sapiens, UniProt Q9NZQ7); assay: PD-1/PD-L1 biochemical protein-protein interaction assay (ALPHA); assay type: binding; details: 0.3 nM His tagged PD-L1, 2.5 nM biotinylated Fc-PD-1, 60 minutes at 25° C., read-out: IC50 PD-L1-PD-1 Alpha IC50-mono PD-L1-fcP-D1
# Method: Biological Activity PD-1/PD-L1 & CTLA/CD80 Biochemical Protein-Protein Interaction Assay
# Compounds were tested in biochemical protein-protein interaction assays to determine if they can specifically block the interaction between the extracellular domains of PD-1/PD-L1 or CTLA/CD80. Binding of the protein pairs is measured using a bead based Amplified Luminescent Proximity Homogeneous Assay (ALPHA) platform. Binding of each protein pair results in proximity of the donor and acceptor beads which leads to an increase in ALPHA signal. Disruption of the protein-protein interaction with a test compound results in a decrease in ALPHA signal. Assays are performed in 25 mM Hepes (pH 7.4), 150 mM NaCl, 3.4 mM EDTA, 0.005% Tween 20, and 0.01% BSA. Final protein concentration in the assays were 0.3 nM (His tagged PD-L1), 2.5 nM (biotinylated Fc-PD-1), 1 nM (His tagged CTLA4) and 1 nM (biotinylated CD80). After an assay reaction time of 60 minutes at 25° C., binding was measured with addition of 20 μg/mL ALPHA assay acceptor beads (anti-His coated) and […] ALPHA assay donor beads (streptavidin coated). IC50 values were calculated from the fit of the dose-response curves to a four-parameter equation. Representative data are shown below in Table 1.
# [2] = molecular target: T1, PD-1/PD-L1 interaction (Homo sapiens, UniProt Q9NZQ7); assay: PD-1/PD-L1 NFAT reporter co-culture assay; assay type: cell-based; details: Jurkat PD-1 NFAT-luciferase cells co-cultured with aAPC-PD-L1 CHO cells, 6 hrs at 37° C.; read-out: EC50 NFAT Luciferase
# T1 construct: expressed in transfected cells; host or cells: CHO cells (aAPC-PD-L1) co-cultured with Jurkat cells overexpressing PD-1 and an NFAT-luciferase reporter
# Procedure, shortened: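 Compounds are scored by restoration of NFAT-luciferase signal in PD-1-expressing Jurkat cells cultured 6 h at 37 °C on CHO cells presenting anti-CD3 and PD-L1; EC50 values derive from four-parameter curve fitting.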
# Sequence of PD-1/PD-L1 (Q9NZQ7 19-238 limits assumed): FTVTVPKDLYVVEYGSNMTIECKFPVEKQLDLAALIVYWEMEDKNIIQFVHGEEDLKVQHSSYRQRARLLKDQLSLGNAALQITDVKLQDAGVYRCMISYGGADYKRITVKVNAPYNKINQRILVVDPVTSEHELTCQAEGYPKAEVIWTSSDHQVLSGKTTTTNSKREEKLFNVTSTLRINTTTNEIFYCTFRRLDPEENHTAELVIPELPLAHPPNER
# T1 sequence (Q9NZQ7 19-290): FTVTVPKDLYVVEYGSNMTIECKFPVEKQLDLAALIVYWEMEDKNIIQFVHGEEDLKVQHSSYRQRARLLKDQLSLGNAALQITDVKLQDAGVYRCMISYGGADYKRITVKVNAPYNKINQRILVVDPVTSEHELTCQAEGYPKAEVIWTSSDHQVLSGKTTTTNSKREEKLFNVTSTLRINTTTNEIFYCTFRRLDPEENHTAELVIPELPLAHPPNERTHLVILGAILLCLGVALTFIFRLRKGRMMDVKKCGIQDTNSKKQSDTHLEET
SMILES,IC50 [1] [µM],EC50 [2] [µM]
"Cc1c(COc2cc(OCCN3CCOCC3)c(CNCCO)cc2Cl)cccc1-c1cccc(COc2cc(OCCN3CCOCC3)c(CNCCO)cc2Cl)c1C [Example 28, 2,2′-((((((2,2′-dimethyl-[1,1′-biphenyl]-3,3′-diyl)bis(methylene))bis(oxy))bis(5-chloro-2-(2-morpholinoethoxy)-4,1-phenylene))bis(methylene))bis(azanediyl))bis(ethan-1-ol)]",0.0127,0.663
"Cc1c(COc2ccc(CNC[C@@H](O)CC(=O)O)cc2)cccc1-c1cccc(COc2cc(OCc3cncc(C#N)c3)c(CNC[C@@H](O)CC(=O)O)cc2Cl)c1C [Example 17, (S)-4-((4-((3′-((4-((((S)-3-carboxy-2-hydroxypropyl)amino)methyl)-2-chloro-5-((5-cyanopyridin-3-yl)methoxy)phenoxy)methyl)-2,2′-dimethyl-[1,1′-biphenyl]-3-yl)methoxy)benzyl)amino)-3-hydroxybutanoic acid]",0.0003,1.61
"Cc1c(COc2cc(OCc3cncc(C#N)c3)c(CNCCO)cc2Cl)cccc1-c1cccc(-c2ccc(CNCCCC(=O)O)cc2)c1C [Example 334, 4-(((3″-((2-chloro-5-((5-cyanopyridin-3-yl)methoxy)-4-(((2-hydroxyethyl)amino)methyl)phenoxy)methyl)-2′,2″-dimethyl-[1,1′:3′,1″-terphenyl]-4-yl)methyl)amino)butanoic acid]",0.000143,
"Cc1c(COc2cc(OCc3cncc(C#N)c3)c(CNCc3nnn[nH]3)cc2Cl)cccc1-c1cccc(COc2cc(OCc3cncc(C#N)c3)c(CNCc3nnn[nH]3)cc2Cl)c1C [Example 163, 5,5′-((((((2,2′-dimethyl-[1,1′-biphenyl]-3,3′-diyl)bis(methylene))bis(oxy))bis(6-((((1H-tetrazol-5-yl)methyl)amino)methyl)-4-chloro-3,1-phenylene))bis(oxy))bis(methylene))dinicotinonitrile]",0.0006,0.343
N#Cc1cncc(COc2nc(OCc3cccc(-c4cccc(COc5nc(OCc6cncc(C#N)c6)c(CNC[C@@H](O)CC(=O)O)cc5Br)c4Cl)c3Cl)c(Br)cc2CNC[C@@H](O)CC(=O)O)c1 [Example 563],0.000317,
"COc1nc(OCc2cccc(-c3cccc(COc4nc(OC)c(CN[C@H](C(=O)O)[C@@H](C)O)cc4Cl)c3C)c2C)c(Cl)cc1CN[C@H](C(=O)O)[C@@H](C)O [Example 51, (2S,2′S,3R,3′R)-2,2′-((((((2,2′-dimethyl-[1,1′-biphenyl]-3,3′-diyl)bis(methylene))bis(oxy))bis(5-chloro-2-methoxypyridine-6,3-diyl))bis(methylene))bis(azanediyl))bis(3-hydroxybutanoic acid)]",,0.105
"COc1nc(OCc2cccc(-c3cccc(COc4nc(OC)c(CN5CCOC[C@H]5C(=O)O)cc4Cl)c3C)c2C)c(Cl)cc1CN1CCOC[C@H]1C(=O)O [Example 233, (3S,3′S)-4,4′-(((((2,2′-dimethyl-[1,1′-biphenyl]-3,3′-diyl)bis(methylene))bis(oxy))bis(5-chloro-2-methoxypyridine-6,3-diyl))bis(methylene))bis(morpholine-3-carboxylicacid)]",,11.6
"Cc1c(COc2nc(OCc3cc(C#N)cc(C#N)c3)c(CNCC(=O)O)cc2Cl)cccc1-c1cccc(COc2nc(OCc3cc(C#N)cc(C#N)c3)c(CNCC(=O)O)cc2Cl)c1C [Example 125, 2,2′-((((((2,2′-dimethyl-[1,1′-biphenyl]-3,3′-diyl)bis(methylene))bis(oxy))bis(5-chloro-2-((3,5-dicyanobenzyl)oxy)pyridine-6,3-diyl))bis(methylene))bis(azanediyl))diacetic acid]",,0.158
"COc1nc(OCc2cccc(-c3cccc(COc4nc(OC)c(CNC(C)(C)C(=O)O)cc4Cl)c3C)c2C)c(Cl)cc1CNC(C)(C)C(=O)O [Example 97, 2,2′-((((((2,2′-dimethyl-[1,1′-biphenyl]-3,3′-diyl)bis(methylene))bis(oxy))bis(5-chloro-2-methoxypyridine-6,3-diyl))bis(methylene))bis(azanediyl))bis(2-methylpropanoic acid)]",,0.028
"COc1nc(OCc2cccc(-c3cccc(COc4nc(OC)c(CN5CCNC(=O)C5)cc4Br)c3C)c2C)c(Br)cc1CN1CCNC(=O)C1 [Example 270, 4,4′-(((((2,2′-dimethyl-[1,1′-biphenyl]-3,3′-diyl)bis(methylene))bis(oxy))bis(5-bromo-2-methoxypyridine-6,3-diyl))bis(methylene))bis(piperazin-2-one)]",,≥ 50
"Cc1c(COc2nc(OCCc3cc(C#N)ccn3)c(CNC[C@@H](O)CC(=O)O)cc2Br)cccc1-c1cccc(COc2nc(OCCc3cc(C#N)ccn3)c(CNC[C@@H](O)CC(=O)O)cc2Br)c1C [Example 128, (3S,3′S)-4,4′-((((((2,2′-dimethyl-[1,1′-biphenyl]-3,3′-diyl)bis(methylene))bis(oxy))bis(5-bromo-2-(2-(4-cyanopyridin-2-yl)ethoxy)pyridine-6,3-diyl))bis(methylene))bis(azanediyl))bis(3-hydroxybutanoic acid)]",,0.234

# The remaining lines, values ahead:
IC50 [1] [µM],EC50 [2] [µM],SMILES
0.0349,2.07,"Cc1c(COc2cc(OCc3cccnc3)c(CNCCO)cc2Cl)cccc1-c1cccc(COc2cc(OCc3cccnc3)c(CNCCO)cc2Cl)c1C [Example 22, 2,2′-((((((2,2′-dimethyl-[1,1′-biphenyl]-3,3′-diyl)bis(methylene))bis(oxy))bis(5-chloro-2-(pyridin-3-ylmethoxy)-4,1-phenylene))bis(methylene))bis(azanediyl))bis(ethan-1-ol)]"
0.0002,0.558,"Cc1c(COc2cc(OCc3ccnc(C#N)c3)c(CNC[C@@H](O)CC(=O)O)cc2Cl)cccc1-c1cccc(COc2cc(OCc3ccnc(C#N)c3)c(CNC[C@@H](O)CC(=O)O)cc2Cl)c1C [Example 219, (3S,3′S)-4,4′-((((((2,2′-dimethyl-[1,1′-biphenyl]-3,3′-diyl)bis(methylene))bis(oxy))bis(5-chloro-2-((2-cyanopyridin-4-yl)methoxy)-4,1-phenylene))bis(methylene))bis(azanediyl))bis(3-hydroxybutanoic acid)]"
,13.2,"COc1nc(O[C@H]2CCc3c(-c4cccc(-c5ccc(OCCNCCO)cc5)c4C)cccc32)ccc1CNCC(=O)O [Example 102, (S)-((6-((4-(4′-(2-((2-hydroxyethyl)amino)ethoxy)-2-methyl-[1,1′-biphenyl]-3-yl)-2,3-dihydro-1H-inden-1-yl)oxy)-2-methoxypyridin-3-yl)methyl)glycine]"
,≥ 50,"CCOC(=O)C[C@H](O)CNCc1cc(C2CC2)c(OCc2cccc(-c3cccc(COc4nc(OC)c(CNC[C@@H](O)CC(=O)O)cc4C4CC4)c3C)c2C)nc1OC [Example 56, (S)-4-(((5-cyclopropyl-6-((3′-(((3-cyclopropyl-5-((((S)-4-ethoxy-2-hydroxy-4-oxobutyl)amino)methyl)-6-methoxypyridin-2-yl)oxy)methyl)-2,2′-dimethyl-[1,1′-biphenyl]-3-yl)methoxy)-2-methoxypyridin-3-yl)methyl)amino)-3-hydroxybutanoic acid]"
,0.076,"COc1nc(OCc2cccc(-c3cccc(COc4nc(OC)c(CN[C@@H](CO)C(=O)O)cc4Cl)c3C)c2C)c(Cl)cc1CN[C@@H](CO)C(=O)O [Example 50, (2S,2′S)-2,2′-((((((2,2′-dimethyl-[1,1′-biphenyl]-3,3′-diyl)bis(methylene))bis(oxy))bis(5-chloro-2-methoxypyridine-6,3-diyl))bis(methylene))bis(azanediyl))bis(3-hydroxypropanoic acid)]"
